Experiments:
U87-MG = assay: In vivo play-off phage auditioning, U87-MG tumor; parameters: species or system human glioblastoma in athymic nude mice; details: phage-displayed peptide; equimolar mix, i.v. 1 × 10^10 pfu/mouse, 2 h circulation, perfusion; Ion-Torrent sequencing; mean, N = 3 mice
Method: (§1) Athymic nude mice (Hsd/Athymic Fox1 nu Harlan) were purchased from Envigo (Netherlands) and maintained under standard housing conditions of the Animal Facility of the Institute of Biomedicine and Translational Medicine, University of Tartu (Tartu, Estonia). For orthotropic GBM tumor models, we used NCH421K, P13, and P3 stem cell-like, WT-GBM cells. The individual GBM cells around 2–3 × 10^5 in 3 μL PBS were intracranially implanted into mice brain 2 mm right and 1 mm anterior to the bregma. U87-MG and PC3 subcutaneous models were induced by injecting 2–9 × 10^6 cells in 100 µl PBS subcutaneously into the right flank of 11–15 week old male and female nude mice. All animal experiments were performed in accordance with the procedures approved by the Committee of Animal Experimentation of Estonian Ministry of Agriculture, permits #42 and #48.
(§2) In vivo play-off was used for internally controlled and competitive systemic phage homing studies in mice bearing tumor xenografts. Phages displaying the candidate TNC-C binding peptides and control peptides were individually amplified and purified by precipitation with PEG-8000 (Sigma-Aldrich, St. Louis, MO, USA), followed by […] gradient ultracentrifugation and dialysis. The phages were pooled at equimolar representation (Table 1 for details) and injected iv at 1 × 10^10 pfu (in 200 µl PBS) in tumor-bearing mice, circulated for 2 h, followed by anesthesia and intracardial perfusion with DMEM. The tumors and organs were collected in lysogeny broth (LB) medium containing 1% NP40, and the tissues were homogenized using a hand-held homogenizer. Phages in the tissue lysate were amplified in E.coli, purified by precipitation with PEG-8000, and DNA was extracted using a DNA extraction kit (High Pure PCR Template Preparation Kit; Roche, Basel, Switzerland). Next-generation sequencing of phage genomic DNA with Ion Torrent system (Thermo Fisher Scientific, Waltham, MA, USA) was used to evaluate the representation of each peptide-phage in the input mixture, in tumors and control organs. The FASTQ data from Ion Torrent were processed using a custom python script that identified the barcodes, constant flanking residues, and extracted the reads of the correct length.

recombinant TNC-C = assay: Cell-free phage binding to TNC-C; parameters: species or system human; details: individual T7 phage clones; Ni-NTA magnetic beads coated with hexahistidine-tagged TNC-C
Method: For biopanning on recombinant human TNC-C, we used NNK-encoded CX7C and X7 peptide T7 phage libraries with diversity ~5 × 10^8. Throughout our screens, the selected phages were amplified following plate amplification protocol. The 1st and 4th rounds of biopanning were performed on TNC-C immobilized on Costar 96-Well ELISA plate (#3590, Corning Life Sciences, Tewksbury, MA, USA). Briefly, the multiwell plates were coated with 20 µg/ml recombinant TNC-C in 100 µl of PBS overnight at 4 °C, followed by blocking with 1% bovine serum albumin (BSA) in PBS overnight at 4 °C. The phage library (5 × 10^8 pfu in 100 µl of PBS-BSA) was incubated overnight at 4 °C, followed by 6 washes with PBS containing 1% BSA and 0.1% Tween-20 (washing buffer) to remove background phages, and by phage rescue and amplification in E. coli strain BLT5403 (Novagen, EMD Biosciences, MA, USA)[8]. The subsequent rounds of selection were performed on Ni-NTA Magnetic Agarose Beads (QIAGEN, Hilden, Germany) coated with His-6X tagged TNC-C (30 µg/10 µl beads) at room temperature for 1 h in 400 µl of PBS. The TNC-C beads were washed 3 times with washing buffer, followed by incubation with phages in (5 × 10^8 pfu in 100 µl in washing buffer) at room temperature for 1 h. The background phages were removed by rinsing 6 times with washing buffer, and the bound phages were eluted with 1 ml of PBS containing 500 mM Imidazole and 0.1% NP40.
The eluted phages were titered and amplified for a next round of selection. After 5 rounds of selection, peptide-encoding DNA from a set of 48 phage clones was subjected to Sanger sequencing of peptide-encoding phage DNA[18],[22]. For cell-free binding studies with individual phage clones were incubated with Ni-NTA magnetic beads coated with hexahistidine-tagged TNC-C as above. RPARPAR phage binding to NRP-1-coated beads was used as a positive control. Phage clones displaying heptaglycine peptide (GGGGGGG, G7), or insertless phage clones were used as negative controls. […]
Fig. S13. NRP -1-dependent internalization of PL3 -functionalized AgNPs […]
Supplementary Materials and Methods
Cloning, expression , and purification of TNC-C
Vector Construction. A pF1K (Promega, # FXC00319) derivative plasmid containing full -length cDNA of TNC was used for PCR amplification of cDNA region of TNC-C with Phusion Hot Start II High -Fidelity DNA Polymerase (Thermo Fisher Scientific Inc # F -537L; primer pairs:
5′- CTCCTCT […] -3′ and 5′ -
CAGACA CTCGAG TTATCA TGTAACAATCTC -3′ for domain TNC -C. NdeI and XhoI restriction sites underlined ). The fragments were cloned in the pET28a+ plasmid for TNC -C expression as a n N-terminally His -tagged protein .
Expression and purification of TNC-C. The pET28a+ TNC-C plasmid was used for transformation of E. coli BL21 Rosetta 2 (DE3) pLysS cells (Novagen, #70956). The protein expression was induced by addition of isopropyl β-D-1-thiogalactopyranoside (IPTG) (Sigma, # I6758) to 0.5 mM final concentration and the bacteria were culture d at 18 °C for 16h . Cells were […]
collected by centrifugation, resuspended in ice-cold IMAC buffer (25mM Tris-HCl, 400mM NaCl, 25mM imidazole pH 8, containing EDTA-free protease inhibitor cocktail and DNase I) and lysed by sonification (Bandelin Sonopuls HD 2070, Germany). The cleared bacterial lysate was purified using HiTrap IMAC HP column s (GE Healthcare # 17 -0920-05) on ÄKTA purification system (GE Healthcare ), and the eluate was dialyzed against PBS using 3.5 kDa cut - off 3mL Slide-A-Lyzer Dialysis Cassettes (Thermo Scientific #66330). TNC-C concentration was determined by bicinchoninic acid assay (Thermo Scientific #23227) , and the purity of the proteins was assessed by SDS -PAGE. Mass spectrometry and de novo peptide sequencing were used to confirm the size and sequence of the purified proteins . His-tagged NRP-1 b1b2 domain was expressed and purified as described (Teesalu et al., 2009) .
Single-chain antibodies: The cDNA sequences encoding TNC-C-G11-scFV were retrieved from […]

P3 SCL = assay: In vivo play-off phage auditioning, P3 SCL tumor; parameters: species or system P3 stem cell-like glioblastoma in athymic nude mice; details: phage-displayed peptide; equimolar mix, i.v. 1 × 10^10 pfu/mouse, 2 h circulation, perfusion; Ion-Torrent sequencing; mean, N = 3 mice
Method: as §1, §2

P13 = assay: In vivo play-off phage auditioning, P13 tumor; parameters: species or system P13 glioblastoma in athymic nude mice; details: phage-displayed peptide; equimolar mix, i.v. 1 × 10^10 pfu/mouse, 2 h circulation, perfusion; Ion-Torrent sequencing; mean, N = 3 mice
Method: as §1, §2

WT-GBM = assay: In vivo play-off phage auditioning, WT-GBM tumor; parameters: species or system murine WT-GBM glioblastoma in athymic nude mice; details: phage-displayed peptide; equimolar mix, i.v. 1 × 10^10 pfu/mouse, 2 h circulation, perfusion; Ion-Torrent sequencing; mean, N = 3 mice
Method: as §1, §2

Norm. brain = assay: In vivo play-off phage auditioning, normal brain; parameters: species or system athymic nude mice; details: phage-displayed peptide; equimolar mix, i.v. 1 × 10^10 pfu/mouse, 2 h circulation, perfusion; Ion-Torrent sequencing; mean, N = 3 mice
Method: as §2

PC3 = assay: In vivo play-off phage auditioning, PC3 tumor; parameters: species or system prostate carcinoma in athymic nude mice; details: phage-displayed peptide; equimolar mix, i.v. 1 × 10^10 pfu/mouse, 2 h circulation, perfusion; Ion-Torrent sequencing; mean, N = 3 mice
Method: as §1, §2

## CRGVLRRAKLAAALE [Clone-2]
U87-MG
  Representation of phage in tumors, U87-MG: 0.7 fold G7 control phage
Recombinant TNC-C
  TNC-C binding (fold G7 control phage): 5955 fold G7 control phage
P3 SCL
  Representation of phage in tumors, P3 SCL: 0.4 fold G7 control phage
P13
  Representation of phage in tumors, P13: 0.4 fold G7 control phage
WT-GBM
  Representation of phage in tumors, WT-GBM: 1.6 fold G7 control phage
Norm. brain
  Representation of phage in control brain tissue (Norm. brain): 0.1 fold G7 control phage
PC3
  Representation of phage in tumors, PC3: 0.9 fold G7 control phage

## RGRLVRAK [Modified clone-5]
U87-MG
  Representation of phage in tumors, U87-MG: 0.5 fold G7 control phage
P3 SCL
  Representation of phage in tumors, P3 SCL: 0.3 fold G7 control phage
P13
  Representation of phage in tumors, P13: 0.1 fold G7 control phage
WT-GBM
  Representation of phage in tumors, WT-GBM: 23.8 fold G7 control phage
Norm. brain
  Representation of phage in control brain tissue (Norm. brain): 0.2 fold G7 control phage
PC3
  Representation of phage in tumors, PC3: 3.0 fold G7 control phage

## CSRRGILRAKPAAALE [Clone-4]
U87-MG
  Representation of phage in tumors, U87-MG: 1.1 fold G7 control phage
Recombinant TNC-C
  TNC-C binding (fold G7 control phage): 4889 fold G7 control phage
P3 SCL
  Representation of phage in tumors, P3 SCL: 0.9 fold G7 control phage
P13
  Representation of phage in tumors, P13: 0.8 fold G7 control phage
WT-GBM
  Representation of phage in tumors, WT-GBM: 1.5 fold G7 control phage
Norm. brain
  Representation of phage in control brain tissue (Norm. brain): 0.1 fold G7 control phage
PC3
  Representation of phage in tumors, PC3: 1.2 fold G7 control phage

## RGRLRRVE [Clone 44]
Recombinant TNC-C
  TNC-C binding (fold G7 control phage): 886 fold G7 control phage

## GRLTRVR [Clone-46]
U87-MG
  Representation of phage in tumors, U87-MG: 0.9 fold G7 control phage
Recombinant TNC-C
  TNC-C binding (fold G7 control phage): 115 fold G7 control phage
P3 SCL
  Representation of phage in tumors, P3 SCL: 0.5 fold G7 control phage
P13
  Representation of phage in tumors, P13: 0.5 fold G7 control phage
WT-GBM
  Representation of phage in tumors, WT-GBM: 1.9 fold G7 control phage
Norm. brain
  Representation of phage in control brain tissue (Norm. brain): 0.1 fold G7 control phage
PC3
  Representation of phage in tumors, PC3: 0.9 fold G7 control phage

## AVRGRLRVAKLAAALE [Clone-3]
U87-MG
  Representation of phage in tumors, U87-MG: 0.8 fold G7 control phage
P3 SCL
  Representation of phage in tumors, P3 SCL: 0.6 fold G7 control phage
P13
  Representation of phage in tumors, P13: 0.6 fold G7 control phage
WT-GBM
  Representation of phage in tumors, WT-GBM: 1.3 fold G7 control phage
Norm. brain
  Representation of phage in control brain tissue (Norm. brain): 0.1 fold G7 control phage
PC3
  Representation of phage in tumors, PC3: 1.0 fold G7 control phage

## CAGRGRLVRC [Modified clone-5]
U87-MG
  Representation of phage in tumors, U87-MG: 0.1 fold G7 control phage
P3 SCL
  Representation of phage in tumors, P3 SCL: 0.2 fold G7 control phage
P13
  Representation of phage in tumors, P13: 0.4 fold G7 control phage
WT-GBM
  Representation of phage in tumors, WT-GBM: 0.9 fold G7 control phage
Norm. brain
  Representation of phage in control brain tissue (Norm. brain): 0.0 fold G7 control phage
PC3
  Representation of phage in tumors, PC3: 0.4 fold G7 control phage

## AGVGRLRRAKLAAALE [Clone-1]
U87-MG
  Representation of phage in tumors, U87-MG: 1.0 fold G7 control phage
Recombinant TNC-C
  TNC-C binding (fold G7 control phage): 3259 fold G7 control phage
P3 SCL
  Representation of phage in tumors, P3 SCL: 0.9 fold G7 control phage
P13
  Representation of phage in tumors, P13: 0.9 fold G7 control phage
WT-GBM
  Representation of phage in tumors, WT-GBM: 2.3 fold G7 control phage
Norm. brain
  Representation of phage in control brain tissue (Norm. brain): 0.2 fold G7 control phage
PC3
  Representation of phage in tumors, PC3: 1.4 fold G7 control phage

## GGGGGGG [heptaglycine control phage, reference compound]
U87-MG
  Representation of phage in tumors, U87-MG: 1.0 fold G7 control phage
P3 SCL
  Representation of phage in tumors, P3 SCL: 1.0 fold G7 control phage
P13
  Representation of phage in tumors, P13: 1.0 fold G7 control phage
WT-GBM
  Representation of phage in tumors, WT-GBM: 1.0 fold G7 control phage
Norm. brain
  Representation of phage in control brain tissue (Norm. brain): 1 fold G7 control phage
PC3
  Representation of phage in tumors, PC3: 1.0 fold G7 control phage

## VGRVRFSRKLAAALE [Clone-30]
U87-MG
  Representation of phage in tumors, U87-MG: 0.7 fold G7 control phage
Recombinant TNC-C
  TNC-C binding (fold G7 control phage): 3702 fold G7 control phage
P3 SCL
  Representation of phage in tumors, P3 SCL: 0.4 fold G7 control phage
P13
  Representation of phage in tumors, P13: 0.5 fold G7 control phage
WT-GBM
  Representation of phage in tumors, WT-GBM: 2.5 fold G7 control phage
Norm. brain
  Representation of phage in control brain tissue (Norm. brain): 0.1 fold G7 control phage
PC3
  Representation of phage in tumors, PC3: 1.2 fold G7 control phage

## CQRMGVVGAKLAAALE [Clone 36]
Recombinant TNC-C
  TNC-C binding (fold G7 control phage): 3928 fold G7 control phage
